# Key:
# HEK293T cells [1] = experiment: Different DNAPK inhibitors on precise gene editing outcomes, Example 8; conditions: for HDR to indel ratio / Precise KI fold increase: gINS + ssDNA; for Precise KI fold increase: vs DMSO; for MMEJ indels Mean / NHEJ indels Mean / Total editing Mean: sgRNA CD34 (gINS) + ssDNA, 70 hours post-transfection;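 for all read-outs here: cells transfected with plasmids for SpCas9-EGFP, editing outcomes quantified from genomic DNA by deep targeted amplicon sequencing with bioinformatic analysis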
# Protocol: Cells allowed to attach for 12 hours before transfection. Cells were transfected with DNA plasmids encoding for SpCas9-EGFP and a sgRNAs targeting CD34 (gINS) in the presence of single-stranded oligonucleotide donor (ssDNA). 70 hours post-transfection cell confluence and EGFP-based transfection efficiencies were determined with the Incucyte S3. Genomic DNA was extracted and editing outcome was analysed through deep-targeted amplicon sequencing using bioinformatic analysis.
# HEK293T cells [2] = experiment: Cell confluency and transfection efficiency in CRISPR/Cas-transfected cells, Example 4; type: cell-based; conditions: AZD7648 at a final concentration of 1 mM, FIG. 10
# Protocol: (§1) The effect of inhibitors of the MMEJ and NHEJ pathways on CRISPR-Cas-induced DNA double stranded break repair pathways was examined using the process shown schematically in FIG. 2A. Briefly, HEK293T cells were seeded into a 96-well plate 20 hours before transfection with plasmids encoding SpCas9 and a guide RNA (sgRNA) targeting CD34 together with a single-stranded oligonucleotide donor (ssDNA). […] The Pol Q inhibitors used are PolQ_2, PolQ_3, PolQ_4, PolQ_5, PolQ_6 or PolQ_7. Sixty hours post-transfection, genomic DNA was harvested and sequenced using deep-targeted amplicon sequencing. Genetic variants of the sequencing data were determined using a bioinformatic workflow, and the percentages of DNA double-stranded break repair by the MMEJ, NHEJ, and HDR pathways were determined using Rational InDel Meta-Analysis (RIMA). See, e.g., Taheri-Ghafarokhi et al, Nuc. Acids Res., 2018, 46 (16): 8417-8434. The RIMA results are plotted as shown in FIG. 2B, where deletions associated with microhomologies are visualized according to the bars shown in the figure.
# HEK293T cells were cultured, transfected, and treated with NHEJ and MMEJ inhibitors as described in Example 1. Cell confluency and transfection efficiency was assessed in transfected cells treated with NHEJ and MMEJ inhibitors.
# HEK293T cells [3] = experiment: PolQ2 and PolQ6 on precise gene editing outcome at various target-sites, Example 9; type: cell-based; conditions: DNAPK inhibitor 1 μM, PolQ inhibitor 0 μM; for MMEJ indels Mean / NHEJ indels Mean / Total editing Mean: HEK293T, ssDNA donor; for Precise KI fold increase: vs DMSO
# Protocol: (§2) HEK293T cells were seeded into 96-well plates and allowed to attach for 20 hours.
# HEK293T cells [4] = experiment: PolQ inhibitor ART558 titration on precise gene editing outcomes, Example 10; type: cell-based; conditions: DNAPK inhibitor 1 μM, PolQ inhibitor 0 μM
# Protocol: as §2
# Cas9-inducible iPSCs = experiment: SSTR-mediated gene knock-in in Cas9-inducible iPSCs, Example 6; type: cell-based; conditions: single inhibitor, mapped reads, FIG. 13
# Protocol: (§3) The effect of NHEJ and/or MMEJ pathway inhibition on CRISPR-Cas-induced DNA double stranded break repair pathways in iPSCs was examined. Briefly, iPSCs comprising an inducible Cas9 gene were seeded into a 96-well plate 20 hours before transfection with a plasmid encoding a guide RNA (sgRNA) targeting one of three separate target sites together with a single-stranded oligonucleotide donor (ssDNA), followed by induction of Cas9 expression. […] Sixty hours post-transfection, the percentage of double-stranded break repair by the HDR, NHEJ, and MMEJ pathways was determined as discussed in Example 1.
# The effect of NHEJ and MMEJ pathway inhibition on gene knock-in efficiency mediated by the SSTR pathway in iPSCs was investigated. Briefly, Cas9-inducible iPSCs were cultured and transfected with sgRNA and ssDNA polynucleotides as described in Example 5.
# [5] = test system: induced Pluripotent Stem Cells (iPSC); experiment: Double-strand break repair pathways in Cas9-inducible iPSCs, Example 5; type: cell-based; conditions: single inhibitor: AZD7648 1 μM or PolQ inhibitor 3 μM, vs DMSO, FIG. 12
# Protocol: as §3
# HEK293T cells [6] = experiment: Off-target editing at HEK3 and HEK4 on- and off-target sites with DNAPK and PolQ inhibitors, Example 12; type: cell-based; conditions: DNAPK inhibitor 1 μM, PolQ inhibitor 0 μM
# Protocol: as §2
# HEK293T cells [7] = experiment: CRISPR/Cas9 double-strand break repair pathway and knock-in analysis (RIMA, amplicon sequencing), Examples 1-3; type: cell-based
# Protocol: as §1
# The effect of NHEJ and MMEJ inhibitors on the CRISPR/Cas-mediated knock-in efficiency was determined in both mutated and mapped reads.
# The effect of MMEJ pathway inhibition on mutated and mapped reads was assessed.
# [8] = HEK293T, sgRNA CD34 (gMEJ) + ssDNA
# [9] = SpCas9 + sgRNA CD34 + ssDNA, AZD7648 1 μM alone or in combination with Pol Q inhibitors, vs DMSO controls, FIG. 4
compound,measurement,setting,value
Cc1cc2ncnn2cc1Nc1ncc2c(n1)n(C1CCOCC1)c(=O)n2C [AZD7648],HDR to indel ratio,HEK293T cells [1]; DNAPK inhibitor 0.3125 μM,0.3
same,Precise KI fold increase,HEK293T cells [1]; DNAPK inhibitor 0.3125 μM,1.4 fold
same,HDR to indel ratio,HEK293T cells [1]; DNAPK inhibitor 0.625 μM,0.5
same,Precise KI fold increase,HEK293T cells [1]; DNAPK inhibitor 0.625 μM,2.0 fold
same,HDR to indel ratio,HEK293T cells [1]; DNAPK inhibitor 1.25 μM,0.6
same,Precise KI fold increase,HEK293T cells [1]; DNAPK inhibitor 1.25 μM,2.0 fold
same,HDR to indel ratio,HEK293T cells [1]; DNAPK inhibitor 5 μM,1.1
same,Precise KI fold increase,HEK293T cells [1]; DNAPK inhibitor 5 μM,2.9 fold
same,HDR to indel ratio,HEK293T cells [1]; DNAPK inhibitor 10 μM,1.1
same,Precise KI fold increase,HEK293T cells [1]; DNAPK inhibitor 10 μM,2.8 fold
same,MMEJ indels Mean,HEK293T cells [1]; DNAPK inhibitor 0.3125 μM,15.2
same,NHEJ indels Mean,HEK293T cells [1]; DNAPK inhibitor 0.3125 μM,28.6
same,Total editing Mean,HEK293T cells [1]; DNAPK inhibitor 0.3125 μM,69.5
same,MMEJ indels Mean,HEK293T cells [1]; DNAPK inhibitor 0.625 μM,17.4
same,NHEJ indels Mean,HEK293T cells [1]; DNAPK inhibitor 0.625 μM,18.3
same,Total editing Mean,HEK293T cells [1]; DNAPK inhibitor 0.625 μM,66.0
same,MMEJ indels Mean,HEK293T cells [1]; DNAPK inhibitor 1.25 μM,16.5
same,NHEJ indels Mean,HEK293T cells [1]; DNAPK inhibitor 1.25 μM,8.7
same,Total editing Mean,HEK293T cells [1]; DNAPK inhibitor 1.25 μM,53.3
same,MMEJ indels Mean,HEK293T cells [1]; DNAPK inhibitor 5 μM,18.5
same,NHEJ indels Mean,HEK293T cells [1]; DNAPK inhibitor 5 μM,2.5
same,Total editing Mean,HEK293T cells [1]; DNAPK inhibitor 5 μM,57.5
same,MMEJ indels Mean,HEK293T cells [1]; DNAPK inhibitor 10 μM,16.9
same,NHEJ indels Mean,HEK293T cells [1]; DNAPK inhibitor 10 μM,2.2
same,Total editing Mean,HEK293T cells [1]; DNAPK inhibitor 10 μM,53.7
same,cell confluency,HEK293T cells [2],no significant effect
same,MMEJ indels Mean,HEK293T cells [3]; target-site gDel,8.9
same,NHEJ indels Mean,HEK293T cells [3]; target-site gDel,1.3
same,Total editing Mean,HEK293T cells [3]; target-site gDel,77.3
same,MMEJ indels Mean,HEK293T cells [3]; target-site gMej,27.9
same,NHEJ indels Mean,HEK293T cells [3]; target-site gMej,2.9
same,Total editing Mean,HEK293T cells [3]; target-site gMej,83.1
same,MMEJ indels Mean,HEK293T cells [3]; target-site glns,13.3
same,NHEJ indels Mean,HEK293T cells [3]; target-site glns,1.3
same,Total editing Mean,HEK293T cells [3]; target-site glns,83.0
same,KI to indel ratio,HEK293T cells [3]; target-site gDel,4.0
same,Precise KI fold increase,HEK293T cells [3]; target-site gDel,2.5 fold
same,KI to indel ratio,HEK293T cells [3]; target-site gMej,1.0
same,Precise KI fold increase,HEK293T cells [3]; target-site gMej,2.2 fold
same,KI to indel ratio,HEK293T cells [3]; target-site glns,3.3
same,Precise KI fold increase,HEK293T cells [3]; target-site glns,3.3 fold
same,MMEJ indels Mean,HEK293T cells [4]; [8],32.6
same,NHEJ indels Mean,HEK293T cells [4]; [8],1.3
same,Total editing Mean,HEK293T cells [4]; [8],74.4
same,KI to indel ratio,HEK293T cells [4]; gMEJ + ssDNA,0.7
same,SSTR-mediated gene knock-in at all three target sites,Cas9-inducible iPSCs,increased
same,double-strand break repair by the HDR pathway,[5],marked in increase
same,repair by the MMEJ and NHEJ pathways,[5],decreased
same,OT1 off-target editing Mean,HEK293T cells [6]; HEK3 nodonor,41.9
same,OT2 off-target editing Mean,HEK293T cells [6]; HEK3 nodonor,32.5
same,OT3 off-target editing Mean,HEK293T cells [6]; HEK3 nodonor,16.3
same,OT4 off-target editing Mean,HEK293T cells [6]; HEK3 nodonor,0.3
same,on-target editing Mean,HEK293T cells [6]; HEK3 nodonor,73.8
same,OT1 off-target editing Mean,HEK293T cells [6]; HEK3 ssDNA,17.7
same,OT2 off-target editing Mean,HEK293T cells [6]; HEK3 ssDNA,12.7
same,OT3 off-target editing Mean,HEK293T cells [6]; HEK3 ssDNA,7.6
same,OT4 off-target editing Mean,HEK293T cells [6]; HEK3 ssDNA,0.1
same,on-target editing Mean,HEK293T cells [6]; HEK3 ssDNA,61.5
same,OT1 off-target editing Mean,HEK293T cells [6]; HEK4 nodonor,12.7
same,OT2 off-target editing Mean,HEK293T cells [6]; HEK4 nodonor,7.3
same,OT3 off-target editing Mean,HEK293T cells [6]; HEK4 nodonor,36.3
same,on-target editing Mean,HEK293T cells [6]; HEK4 nodonor,9.8
same,OT1 off-target editing Mean,HEK293T cells [6]; HEK4 ssDNA,5.4
same,OT2 off-target editing Mean,HEK293T cells [6]; HEK4 ssDNA,3.3
same,OT3 off-target editing Mean,HEK293T cells [6]; HEK4 ssDNA,18.2
same,on-target editing Mean,HEK293T cells [6]; HEK4 ssDNA,15.6
same,CRISPR/Cas-mediated editing efficiency,"HEK293T cells [7]; AZD7648 1 μM alone and in combination with Pol Q inhibitors, FIG. 5",did not affect
same,double-strand break repair by the HDR pathway,HEK293T cells [7]; [9],marked in increase
same,repair by the MMEJ and NHEJ pathways,HEK293T cells [7]; [9],decreased
